System: MV-4-11 cells
Experiment: Gene expression microarray analysis (Affymetrix PrimeView) and GSEA
Assay type: cell-based, human
Set-up: RFU PODN (11730768_x_at) / Fold change /veh PODN (11730768_x_at) / RFU LINC00158 (11744669_a_at) / Fold change /veh LINC00158 (11744669_a_at) / RFU DUSP10 (11751237_a_at) / Fold change /veh DUSP10 (11751237_a_at) / RFU ID3 (11757404_x_at) / Fold change /veh ID3 (11757404_x_at) / RFU PLEKHG5 (11737974_s_at) / Fold change /veh PLEKHG5 (11737974_s_at) / RFU LRRC4B (11730491_at) / Fold change /veh LRRC4B (11730491_at) / RFU GIMAP4 (11747438_a_at) / Fold change /veh GIMAP4 (11747438_a_at) / RFU KRT8 (11758183_x_at) / Fold change /veh KRT8 (11758183_x_at) / RFU CNN1 (11734310_a_at) / Fold change /veh CNN1 (11734310_a_at) / RFU VPS37D (11726825_at) / Fold change /veh VPS37D (11726825_at) / RFU C10orf10 (11716522_x_at) / Fold change /veh C10orf10 (11716522_x_at) / RFU KIR2DL2 /// KIR2DL4 /// KIR2DL5A /// KIR2DL5B /// KIR2DS1 /// KIR2DS2 /// KIR2DS3 /// KIR2DS4 /// KIR3DL3 /// KIR3DL3 /// KIR3DS1 (11738374_at) / Fold change /veh KIR2DL2 /// KIR2DL4 /// KIR2DL5A /// KIR2DL5B /// KIR2DS1 /// KIR2DS2 /// KIR2DS3 /// KIR2DS4 /// KIR3DL3 /// KIR3DL3 /// KIR3DS1 (11738374_at) / RFU C1QL1 (11718748_at) / Fold change /veh C1QL1 (11718748_at) / RFU TMPRSS4 (11747572_a_at) / Fold change /veh TMPRSS4 (11747572_a_at) / RFU HAMP (11756126_x_at) / Fold change /veh HAMP (11756126_x_at) / RFU RNFT2 (11725882_a_at) / Fold change /veh RNFT2 (11725882_a_at) / RFU NR4A2 (11747474_a_at) / Fold change /veh NR4A2 (11747474_a_at) / RFU ABCC12 (11746883_a_at) / Fold change /veh ABCC12 (11746883_a_at) / RFU TMEM136 (11760407_x_at) / Fold change /veh TMEM136 (11760407_x_at) / RFU CLDN22 /// WWC2 (11732394_at) / Fold change /veh CLDN22 /// WWC2 (11732394_at) / RFU HLA-DPB1 (11760878_x_at) / Fold change /veh HLA-DPB1 (11760878_x_at) / RFU SPINT1 (11716480_a_at) / Fold change /veh SPINT1 (11716480_a_at) / RFU GAP43 (11754022_s_at) / Fold change /veh GAP43 (11754022_s_at) / RFU A4GNT (11735810_at) / Fold change /veh A4GNT (11735810_at) / RFU PRB3 (11715151_x_at) / Fold change /veh PRB3 (11715151_x_at) / RFU TUBB4B (11761932_at) / Fold change /veh TUBB4B (11761932_at) / RFU CAPN14 (11732068_a_at) / Fold change /veh CAPN14 (11732068_a_at) / RFU TMCC2 (11721928_a_at) / Fold change /veh TMCC2 (11721928_a_at) / RFU IRGQ (11745062_a_at) / Fold change /veh IRGQ (11745062_a_at) / RFU FAM174B (11720279_a_at) / Fold change /veh FAM174B (11720279_a_at) / RFU TMPRSS4 (11748680_a_at) / Fold change /veh TMPRSS4 (11748680_a_at) / RFU FAM212B (11763350_a_at) / Fold change /veh FAM212B (11763350_a_at) / RFU PLEKHG5 (11743358_a_at) / Fold change /veh PLEKHG5 (11743358_a_at) / RFU ZSCAN30 (11745921_a_at) / Fold change /veh ZSCAN30 (11745921_a_at) / RFU CMKLR1 (11741424_a_at) / Fold change /veh CMKLR1 (11741424_a_at) / RFU LOC101060620 /// MAPK8IP1 (11723275_at) / Fold change /veh LOC101060620 /// MAPK8IP1 (11723275_at) / RFU SPTSSB (11747773_x_at) / Fold change /veh SPTSSB (11747773_x_at) / RFU PRSS12 (11739890_at) / Fold change /veh PRSS12 (11739890_at) / RFU BIN1 (11741810_x_at) / Fold change /veh BIN1 (11741810_x_at) / RFU WNT11 (11732464_a_at) / Fold change /veh WNT11 (11732464_a_at) / RFU C10orf10 (11716521_a_at) / Fold change /veh C10orf10 (11716521_a_at) / RFU C5orf56 (11738089_at) / Fold change /veh C5orf56 (11738089_at) / RFU CYB561 (11721691_x_at) / Fold change /veh CYB561 (11721691_x_at) / RFU ANKRD19P (11752326_a_at) / Fold change /veh ANKRD19P (11752326_a_at) / RFU OR2T12 /// OR2T33 /// OR2T8 (11738714_s_at) / Fold change /veh OR2T12 /// OR2T33 /// OR2T8 (11738714_s_at) / RFU VCAN (11748164_a_at) / Fold change /veh VCAN (11748164_a_at) / RFU JSRP1 (11732532_at) / Fold change /veh JSRP1 (11732532_at) / RFU KRTAP10-11 (11738290_x_at) / Fold change /veh KRTAP10-11 (11738290_x_at) / RFU MYO3A (11730013_a_at) / Fold change /veh MYO3A (11730013_a_at) / RFU EBF3 (11725865_a_at) / Fold change /veh EBF3 (11725865_a_at) / RFU CAMK2N1 (11719241_x_at) / Fold change /veh CAMK2N1 (11719241_x_at) / RFU C5orf56 (11738088_a_at) / Fold change /veh C5orf56 (11738088_a_at) / RFU OLFML3 (11715873_a_at) / Fold change /veh OLFML3 (11715873_a_at) / RFU LOC100653217 /// NTM (11731650_a_at) / Fold change /veh LOC100653217 /// NTM (11731650_a_at) / RFU MAPK11 (11762145_a_at) / Fold change /veh MAPK11 (11762145_a_at) / RFU FIZ1 (11724087_x_at) / Fold change /veh FIZ1 (11724087_x_at) / RFU OASL (11726364_x_at) / Fold change /veh OASL (11726364_x_at) / RFU SOX15 (11748057_x_at) / Fold change /veh SOX15 (11748057_x_at) / RFU CD79A (11719716_a_at) / Fold change /veh CD79A (11719716_a_at) / RFU HIST1H1D (11736915_at) / Fold change /veh HIST1H1D (11736915_at) / RFU CASKIN2 (11723855_a_at) / Fold change /veh CASKIN2 (11723855_a_at) / RFU LOC730098 (11760151_x_at) / Fold change /veh LOC730098 (11760151_x_at) / RFU OR4N2 (11742367_at) / Fold change /veh OR4N2 (11742367_at) / RFU PRRT2 (11749266_a_at) / Fold change /veh PRRT2 (11749266_a_at) / RFU SNX32 (11753110_a_at) / Fold change /veh SNX32 (11753110_a_at) / RFU CDHR5 (11726645_a_at) / Fold change /veh CDHR5 (11726645_a_at) / RFU RCAN1 (11760418_a_at) / Fold change /veh RCAN1 (11760418_a_at) / RFU FAM167A (11723789_a_at) / Fold change /veh FAM167A (11723789_a_at) / RFU FAM26E (11764081_at) / Fold change /veh FAM26E (11764081_at) / RFU ISYNA1 (11749810_s_at) / Fold change /veh ISYNA1 (11749810_s_at) / RFU ACY1 (11761880_at) / Fold change /veh ACY1 (11761880_at) / RFU 11764098_at / Fold change /veh 11764098_at / RFU SAMD14 (11745864_x_at) / Fold change /veh SAMD14 (11745864_x_at) / RFU NPB (11741838_a_at) / Fold change /veh NPB (11741838_a_at) / RFU TMPRSS6 (11731388_a_at) / Fold change /veh TMPRSS6 (11731388_a_at) / RFU KRTAP10-2 (11738614_at) / Fold change /veh KRTAP10-2 (11738614_at) / RFU ARHGAP8 /// PRR5-ARHGAP8 (11727945_x_at) / Fold change /veh ARHGAP8 /// PRR5-ARHGAP8 (11727945_x_at) / RFU KRTAP5-7 /// NADSYN1 (11734609_at) / Fold change /veh KRTAP5-7 /// NADSYN1 (11734609_at) / RFU RASL12 (11751679_a_at) / Fold change /veh RASL12 (11751679_a_at) / RFU CDKN2B (11736163_a_at) / Fold change /veh CDKN2B (11736163_a_at) / RFU PRF1 (11729649_at) / Fold change /veh PRF1 (11729649_at) / RFU, ZNF638 /// ZNF638-IT1 / Fold change vs veh, ZNF638 /// ZNF638-IT1 / RFU, PANK3 / Fold change vs veh, PANK3 / RFU, SH3YL1 / Fold change vs veh, SH3YL1 / RFU, ZEB2 / Fold change vs veh, ZEB2 / RFU, NRIP1 / Fold change vs veh, NRIP1 / RFU, PTTG1IP / Fold change vs veh, PTTG1IP / RFU, CAPN2 / Fold change vs veh, CAPN2 / RFU, MED14 / Fold change vs veh, MED14 / RFU, SNORA58 / Fold change vs veh, SNORA58 / RFU, C1orf63 / Fold change vs veh, C1orf63 / RFU, LRRFIP1 / Fold change vs veh, LRRFIP1 / RFU, NDUFAF7 / Fold change vs veh, NDUFAF7 / RFU, SLC12A2 / Fold change vs veh, SLC12A2 / RFU, IBTK / Fold change vs veh, IBTK / RFU, ESF1 / Fold change vs veh, ESF1 / Fold change vs veh, TMEM50B / RFU, TAOK1 / Fold change vs veh, TAOK1 / RFU, ACBD3 / Fold change vs veh, ACBD3 / RFU, TMA16 / Fold change vs veh, TMA16 / RFU, RWDD3 / Fold change vs veh, RWDD3 / RFU, BCAT1 / Fold change vs veh, BCAT1 / RFU, EDEM3 / Fold change vs veh, EDEM3 / RFU, TMEM33 / Fold change vs veh, TMEM33 / RFU, WDR75 / Fold change vs veh, WDR75 / RFU, AHCTF1 / Fold change vs veh, AHCTF1 / RFU, TFRC / Fold change vs veh, TFRC / RFU, ZDHHC17 / Fold change vs veh, ZDHHC17 / RFU, NOM1 / Fold change vs veh, NOM1 / RFU, ARL8B / Fold change vs veh, ARL8B / RFU, ZBTB11 / Fold change vs veh, ZBTB11 / RFU, TAMM41 / Fold change vs veh, TAMM41 / RFU, KIAA1704 /// LOC100996395 / Fold change vs veh, KIAA1704 /// LOC100996395 / RFU, ING1 / Fold change vs veh, ING1 / RFU, TRMT61B / Fold change vs veh, TRMT61B / RFU, FUBP3 / Fold change vs veh, FUBP3 / RFU, TP53 / Fold change vs veh, TP53 / RFU, TNKS2 / Fold change vs veh, TNKS2 / RFU, ZFP14 / Fold change vs veh, ZFP14 / RFU, ACTR2 / Fold change vs veh, ACTR2 / RFU, PPP3R1 / Fold change vs veh, PPP3R1 / RFU, PIK3R1 / Fold change vs veh, PIK3R1 / RFU, HNRNPA1 / Fold change vs veh, HNRNPA1 / RFU, RNF170 / Fold change vs veh, RNF170 / RFU, ZNF28 / Fold change vs veh, ZNF28 / RFU, RNGTT / Fold change vs veh, RNGTT / RFU, OGT / Fold change vs veh, OGT / RFU, BRD1 / Fold change vs veh, BRD1 / RFU, MARS / Fold change vs veh, MARS / RFU, ZNF655 / Fold change vs veh, ZNF655 / RFU, FAHD1 / Fold change vs veh, FAHD1 / RFU, BDP1 / Fold change vs veh, BDP1 / RFU, LRRCC1 / Fold change vs veh, LRRCC1 / RFU, ARID1A / Fold change vs veh, ARID1A / RFU, ZNF146 / Fold change vs veh, ZNF146 / RFU, ZNF330 / Fold change vs veh, ZNF330 / RFU, GPN3 / Fold change vs veh, GPN3 / RFU, C9orf123 / Fold change vs veh, C9orf123 / RFU, N4BP2L2 / Fold change vs veh, N4BP2L2 / RFU, ARFIP1 / Fold change vs veh, ARFIP1 / RFU, FAM179B / Fold change vs veh, FAM179B / RFU, BCL10 / Fold change vs veh, BCL10 / RFU, UHRF1BP1L / Fold change vs veh, UHRF1BP1L / RFU, BET1 / Fold change vs veh, BET1 / RFU, CNOT2 / Fold change vs veh, CNOT2 / RFU, ZNF268 / Fold change vs veh, ZNF268 / Fold change vs veh, ZNF507 / RFU, DGCR2 / Fold change vs veh, DGCR2 / RFU, WDSUB1 / Fold change vs veh, WDSUB1 / Fold change vs veh, HSP90B1 /// MIR3652 / RFU, ADSS / Fold change vs veh, ADSS / RFU, GK / Fold change vs veh, GK / RFU, ZNF148 / Fold change vs veh, ZNF148 / RFU, TAF9 / Fold change vs veh, TAF9 / RFU, SLC1A5 / Fold change vs veh, SLC1A5 / RFU, SLMO2 / Fold change vs veh, SLMO2 / RFU, ABCC4 / Fold change vs veh, ABCC4 / RFU, LOC101060439 /// RAP1B / Fold change vs veh, LOC101060439 /// RAP1B / RFU, RFX7 / Fold change vs veh, RFX7 / RFU, GTPBP10 / Fold change vs veh, GTPBP10 / RFU, CNEP1R1 / Fold change vs veh, CNEP1R1 / RFU, BIVM-ERCC5 /// ERCC5 / Fold change vs veh, BIVM-ERCC5 /// ERCC5 / RFU, ILF3 / Fold change vs veh, ILF3 / RFU 11762660_at / Fold change /veh 11762660_at / RFU VCAN (11757783_s_at) / Fold change /veh VCAN (11757783_s_at) / RFU DDX43 (11728927_at) / Fold change /veh DDX43 (11728927_at) / RFU KRT8 (11758188_x_at) / Fold change /veh KRT8 (11758188_x_at) / RFU NKD1 (11759106_at) / Fold change /veh NKD1 (11759106_at) / RFU SRD5A1 (11742802_a_at) / Fold change /veh SRD5A1 (11742802_a_at) / RFU TPSAB1 /// TPSB2 (11721975_s_at) / Fold change /veh TPSAB1 /// TPSB2 (11721975_s_at) / RFU GSTM3 (11746129_a_at) / Fold change /veh GSTM3 (11746129_a_at) / RFU IL23R (11737362_x_at) / Fold change /veh IL23R (11737362_x_at) / RFU TMEM51 (11727254_a_at) / Fold change /veh TMEM51 (11727254_a_at) / RFU PIWIL2 (11732686_x_at) / Fold change /veh PIWIL2 (11732686_x_at) / RFU ORM1 (11744905_x_at) / Fold change /veh ORM1 (11744905_x_at) / RFU CCDC152 (11743942_at) / Fold change /veh CCDC152 (11743942_at) / RFU ECM1 (11717891_a_at) / Fold change /veh ECM1 (11717891_a_at) / RFU IL23R (11748794_a_at) / Fold change /veh IL23R (11748794_a_at) / RFU TNFAIP8L3 (11732012_x_at) / Fold change /veh TNFAIP8L3 (11732012_x_at) / RFU MBOAT4 (11741988_at) / Fold change /veh MBOAT4 (11741988_at) / RFU 11764193_at / Fold change /veh 11764193_at / RFU TMEM53 (11763286_at) / Fold change /veh TMEM53 (11763286_at) / RFU MAGEB2 (11727129_at) / Fold change /veh MAGEB2 (11727129_at) / RFU TMEM200A (11744735_a_at) / Fold change /veh TMEM200A (11744735_a_at) / RFU CCDC152 (11751479_a_at) / Fold change /veh CCDC152 (11751479_a_at) / RFU FAM211A (11726209_a_at) / Fold change /veh FAM211A (11726209_a_at) / RFU RGS16 (11746705_a_at) / Fold change /veh RGS16 (11746705_a_at) / RFU VCAN (11755009_s_at) / Fold change /veh VCAN (11755009_s_at) / RFU RHOB (11743442_s_at) / Fold change /veh RHOB (11743442_s_at) / RFU RGS16 (11720943_a_at) / Fold change /veh RGS16 (11720943_a_at) / RFU RGS16 (11720944_at) / Fold change /veh RGS16 (11720944_at) / RFU, VPS4B / Fold change vs veh, VPS4B / RFU, CREB1 / Fold change vs veh, CREB1 / RFU, DNAJC13 / Fold change vs veh, DNAJC13 / RFU, GNAQ / Fold change vs veh, GNAQ / RFU, CDK5R1 / Fold change vs veh, CDK5R1 / RFU, ZRANB3 / Fold change vs veh, ZRANB3 / RFU, CUL4A / Fold change vs veh, CUL4A / RFU, CCNY / Fold change vs veh, CCNY / RFU, UFL1 / Fold change vs veh, UFL1 / RFU, COG3 / Fold change vs veh, COG3 / RFU, DIAPH2 / Fold change vs veh, DIAPH2 / RFU, SKA2 / Fold change vs veh, SKA2 / RFU, AFF3 / Fold change vs veh, AFF3 / RFU, LMF1 / Fold change vs veh, LMF1 / RFU, IPO11 / Fold change vs veh, IPO11 / RFU, DFFB / Fold change vs veh, DFFB / RFU, FOXP1 / Fold change vs veh, FOXP1 / RFU, CARD8 / Fold change vs veh, CARD8 / RFU, STRN3 / Fold change vs veh, STRN3 / RFU, ADK / Fold change vs veh, ADK / RFU, RASSF2 / Fold change vs veh, RASSF2 / RFU, WIPF1 / Fold change vs veh, WIPF1 / RFU, LARP1B / Fold change vs veh, LARP1B / RFU, RASA1 / Fold change vs veh, RASA1 / RFU, RB1 / Fold change vs veh, RB1 / RFU, PPFIA1 / Fold change vs veh, PPFIA1 / RFU, MAT2A / Fold change vs veh, MAT2A / RFU, CCT5 / Fold change vs veh, CCT5 / RFU, WDR92 / Fold change vs veh, WDR92 / RFU, CUX1 / Fold change vs veh, CUX1 / RFU, TTC7A / Fold change vs veh, TTC7A / RFU, TMEM135 / Fold change vs veh, TMEM135 / RFU, DEPTOR / Fold change vs veh, DEPTOR / RFU, CPM / Fold change vs veh, CPM / RFU, DNAJB6 / Fold change vs veh, DNAJB6 / RFU, CACNA2D3 / Fold change vs veh, CACNA2D3 / RFU, DTX4 / Fold change vs veh, DTX4 / RFU, TFCP2 / Fold change vs veh, TFCP2 / RFU, GMCL1 /// GMCL1P1 / Fold change vs veh, GMCL1 /// GMCL1P1 / RFU, AEBP2 / Fold change vs veh, AEBP2 / RFU, SNHG1 /// SNORD22 /// SNORD25 /// SNORD26 /// SNORD27 /// SNORD28 /// SNORD29 /// SNORD31 / Fold change vs veh, SNHG1 /// SNORD22 /// SNORD25 /// SNORD26 /// SNORD27 /// SNORD28 /// SNORD29 /// SNORD31 / Fold change (Aza/veh), C12orf56 (ProbeSet 11735607_a_at) / Fold change (ACY-1035/veh), C12orf56 (ProbeSet 11735607_a_at) / Fold change (Aza/veh), FGFR1OP (ProbeSet 11751329_s_at) / Fold change (ACY-1035/veh), FGFR1OP (ProbeSet 11751329_s_at) / Fold change (Aza/veh), VPS36 (ProbeSet 11739960_a_at) / Fold change (ACY-1035/veh), VPS36 (ProbeSet 11739960_a_at) / RFU SYPL1 (11715823_x_at) / Fold change /veh SYPL1 (11715823_x_at) / RFU IGFBP7 (11715501_s_at) / Fold change /veh IGFBP7 (11715501_s_at) / RFU REEP3 (11722064_at) / Fold change /veh REEP3 (11722064_at) / RFU IGLL1 (11728026_x_at) / Fold change /veh IGLL1 (11728026_x_at): dose or concentration left out as unconfirmed
Conditions: MV-4-11 cells, 48 hours

Compound: Nc1ccc(-c2cccs2)cc1NC(=O)c1ccc2c(c1)cc(C1CC1)n2CCN1CCOCC1 [ACY-1035]
- RFU ABCC12 (11746883_a_at): 8.23 RFU

— publication PMC5218480 (PLoS ONE, 2017)
